Assay results taken from PMC11302339, “A series of pyrimidine-based antifungals with anti-mold activity disrupt ER function in Aspergillus fumigatus” (Microbiology Spectrum, 2024).
≈ marks a conversion by molar mass, not a printed value. Read-outs that look alike come from different tables or passages of the source.

What was measured:
S. cerevisiae = assay: MIC testing (broth dilution, YPD); assay type: cell-based; settings: Saccharomyces cerevisiae, 24 h
Method: (§1) MICs were determined using Clinical and Laboratory Standards Institute guidelines ([48], [49]). All yeasts were cultured overnight in 3 mL YPD at 30°C, then washed twice in sterile phosphate-buffered saline (PBS). Twofold serial dilutions of each drug were prepared in RMPI + MOPS, then 1 × 10^3 cells were added per well. For mold species, wells were inoculated with 1.25 × 10^3 conidia per well. Plates were incubated at 37°C for 24 (Candida spp. and S. cerevisiae), 48 (Aspergillus spp., M. circinelloides, S. apiospermum, and L. prolificans), or 72 (C. neoformans and F. oxysporum) hours. S. cerevisiae BY4743 MICs were tested in YPD due to nutritional requirements of this strain. Each assay was performed in technical duplicate in at least two independent experiments performed on different days.

M. circinelloides = assay: MIC testing (CLSI broth dilution); assay type: cell-based; settings: Mucor circinelloides; strain CBS277.49; CLSI conditions
Method: as §1

A. fumigatus = assay: MIC testing (CLSI broth dilution); assay type: cell-based; settings: Aspergillus fumigatus
Method: as §1

F. oxysporum = assay: MIC testing (CLSI broth dilution); assay type: cell-based; settings: Fusarium oxysporum; strain DUMC Fo, clinical isolate; CLSI conditions, 72 h
Method: as §1

L. prolificans = assay: MIC testing (CLSI broth dilution); assay type: cell-based; settings: Lomentospora prolificans; strain 90853; CLSI conditions
Method: as §1

S. apiospermum = assay: MIC testing (CLSI broth dilution); assay type: cell-based; settings: Scedosporium apiospermum; strain MYA3635 (lab reference strain); CLSI conditions
Method: as §1

C. glabrata = assay: MIC testing (CLSI broth dilution); assay type: cell-based; settings: Nakaseomyces glabratus; strain KK2001; CLSI conditions
Method: as §1

C. neoformans [1] = assay: MIC testing (CLSI broth dilution); assay type: cell-based; settings: Cryptococcus neoformans
Method: as §1

C. neoformans [2] = assay: MIC testing in the presence of 10% serum; assay type: cell-based
Method: as §1

A. fumigatus biofilms = assay: A. fumigatus hyphal (biofilm) activity, resazurin; assay type: cell-based, Aspergillus fumigatus; settings: conidia germinated 14 hours
Method: To determine antifungal activity against A. fumigatus hyphae, a 96-well plate was inoculated with 1 × 10^3 conidia per well in 100 µL RPMI + MOPS with the edge wells filled with 200 µL sterile water to minimize edge effects. Plates were incubated at 37°C for 14 hours. A twofold dilution series of 1 or 7 was prepared in RPMI + MOPS at 2× concentration with 0.002% resazurin, then 100 µL of the drug was added to wells, and plates were incubated for an additional 24 hours. Fluorescence was measured with an excitation wavelength of 570 nm and an emission wavelength of 615 nm. Data are representative of two independent experiments performed in biological triplicate.

sheep red blood cells = assay: Hemolysis assay; assay type: cell-based; settings: 2 hours at RT
Method: Hemolysis assays were performed with defibrinated sheep’s blood (Lampire, Cat # 7239001). Blood was washed three times with PBS then resuspended to ~50% hematocrit in PBS. Drugs were diluted to generate a twofold dilution series in 200 µL PBS with equal DMSO concentration across the series, then red blood cells were added for a final concentration of 2% hematocrit. Cells were incubated at RT for 2 hours in a v-bottom microtiter plate; then, plates were spun down; and the supernatant was transferred to a flat-bottomed microtiter plate for absorbance measurement at 570 nm. Drugs were tested in technical triplicate in at least two independent assays performed on different lots of blood.

[3] = Mouse microsome stability; assay type: in vitro ADME; settings: mouse microsomes, 0.5 mg/mL microsomes, NADPH cofactors, 37°C
Method: 1 (2 mM in DMSO) was incubated at 37°C with 0.5 mg/mL mouse microsomes (lot # 2110330) fraction and Phase I (NADPH regenerating system) cofactors for 0–120 min at a final concentration of 2 µM. Reactions were quenched with 0.5 mL (1:1) of methanol containing formic acid (FA) 0.2% and 100 ng/mL n-benzylbenzamide internal standard (IS; 0.1% FA and 50ng/mL IS final). Samples were vortexed for 30 s, incubated at room temperature for 10 min, and spun for 5 min at 2,200 rpm in a tabletop centrifuge. Supernatant (~0.9 mL) was then transferred to an Eppendorf tube and spun in a 4°C microfuge for 5 min at 13,200 rpm. Supernatant was transferred to an high-performance liquid chromatography plate with seal and samples then analyzed by a 4500 LC-MS/MS.

Hog1 = assay: Western blotting for total and phosphorylated Hog1; assay type: cell-based, Cryptococcus neoformans
Method: C. neoformans H99 overnight cultures were diluted to OD = 0.1 in YPD and incubated at 30°C for 3 hours with shaking. Cultures were split into four subcultures and treated with DMSO or 1 µg/mL 1 (two each) for 2 hours at 30°C, then water or 1 M NaCl was added to one culture of each treatment and incubated for an additional 30 min at 30°C. Cell pellets were snap frozen and stored at −80°C. Protein was extracted in extraction buffer (10 mM HEPES, pH 7.4–7.9, 1.5 mM MgCl2, 10 mM KCl, 1 mM DTT, 1× HALT protease and phosphatase inhibitor cocktail) by bead beading for 30 s on 60 s off with incubation on ice five times. The supernatant was removed from glass beads, and protein concentration was quantified by Bradford protein assay. Twenty micrograms of protein was loaded on a 10% SDS-PAGE gel and run at 80 V. Samples were transferred to nitrocellulose membrane for 1 hour at 100 V, then the membrane was stained with Ponceau for 15 min at RT. Membranes were blocked with 5% bovine serum albumin (BSA) in Tris-buffered saline with Tween 20 (TBST) for 1 hour at room temperature, then incubated with 1:10,000 rabbit anti-p-p38 (Phospho-p38 MAPK, # 9211; Cell Signaling) in 5% BSA/TBST or 1:5,000 custom Hog1 antibody # R02361 (GenScript) overnight at 4°C. […]

OC1CC(c2cc(N3CCC(CCc4ccccc4)CC3)ncn2)C1 (stereo not drawn) [compound 1]
MIC (S. cerevisiae): 8 µg/mL (≈ 23.7 µM) | MIC (M. circinelloides): 16 µg/mL (≈ 47.4 µM) | MIC (A. fumigatus; 48 h, strain CEA10, CLSI conditions, 48 h, read-out: MIC): 16 µg/mL (≈ 47.4 µM) | MIC (A. fumigatus; ATCC13073, strain ATCC13073, CLSI conditions, read-out: MIC): 8 µg/mL (≈ 23.7 µM) | MIC (A. fumigatus; strain AF293, CLSI conditions, read-out: MIC): 16 µg/mL (≈ 47.4 µM) | MIC (A. fumigatus; strain S001, clinical isolate, CLSI conditions, read-out: MIC): 8 µg/mL (≈ 23.7 µM) | MIC (A. fumigatus; strain S003, clinical isolate, CLSI conditions, read-out: MIC): 4 µg/mL (≈ 11.9 µM) | MIC (A. fumigatus; strain SPF93 (voriconazole-susceptible parent), CLSI conditions, read-out: MIC): 8 µg/mL (≈ 23.7 µM) | MIC (A. fumigatus; strain SPF98, drug-resistant isolate (cyp51A TR34 L98H), CLSI conditions): 8 µg/mL (≈ 23.7 µM) | MIC (A. fumigatus; A. fumigatus reference strains and clinical isolates, read-out: MIC): 8 to 16 µg/mL (≈ 23.7 to 47.4 µM) | MIC (F. oxysporum): > 64 µg/mL | MIC (L. prolificans): 8 µg/mL (≈ 23.7 µM) | MIC (S. apiospermum): 2 µg/mL (≈ 5.93 µM) | MIC (C. glabrata): 64 µg/mL (≈ 190 µM) | MIC (C. neoformans [1]; 72 h, strain H99, CLSI conditions): 1 µg/mL (≈ 2.96 µM) | MIC (C. neoformans [1]; strain DUMC118, clinical isolate, CLSI conditions): 2 µg/mL (≈ 5.93 µM) | MIC (C. neoformans [1]; strain DUMC138, clinical isolate, CLSI conditions): 1 µg/mL (≈ 2.96 µM) | MIC (C. neoformans [1]; strain JEC21, CLSI conditions): 2 µg/mL (≈ 5.93 µM) | MIC (C. neoformans [1]; strain not named): 2 µg/mL (≈ 5.93 µM) | increase in MIC in the presence of 10% serum (C. neoformans [2]): 2 fold | IC50 (A. fumigatus biofilms; Aspergillus fumigatus, then treated 24 hours, read-out: IC50 of hyphal growth): 1.66 µg/mL (≈ 4.92 µM) | inhibition of hyphal growth (A. fumigatus biofilms; escalating doses 24 hours): dose-dependent inhibition of hyphal growth | LD50 (hemolysis) (sheep red blood cells; 2% hematocrit): 350 µg/mL | hemolysis of red blood cells (sheep red blood cells; up to 128 µg/mL): did not observe hemolysis | half-life at 2 µM [3]: 75 min | Hog1 phosphorylation (Hog1; 1 µg/mL 1 alone for 2 hours at 30°C): activation of Hog1 via phosphorylation | Hog1 phosphorylation, combination with salt (Hog1; 1 µg/mL 1 for 2 hours, then 1 M NaCl 30 min): additive
